Experiments:
Type in all cases: biochemical
[1] = target: T1, Sulfolobus solfataricus MAT (sMAT) (Saccharolobus solfataricus, UniProt Q980S9); details: ADP in place of ATP, 65° C. for 4 hr, standard assay conditions
T1 sequence (Q980S9 1-404): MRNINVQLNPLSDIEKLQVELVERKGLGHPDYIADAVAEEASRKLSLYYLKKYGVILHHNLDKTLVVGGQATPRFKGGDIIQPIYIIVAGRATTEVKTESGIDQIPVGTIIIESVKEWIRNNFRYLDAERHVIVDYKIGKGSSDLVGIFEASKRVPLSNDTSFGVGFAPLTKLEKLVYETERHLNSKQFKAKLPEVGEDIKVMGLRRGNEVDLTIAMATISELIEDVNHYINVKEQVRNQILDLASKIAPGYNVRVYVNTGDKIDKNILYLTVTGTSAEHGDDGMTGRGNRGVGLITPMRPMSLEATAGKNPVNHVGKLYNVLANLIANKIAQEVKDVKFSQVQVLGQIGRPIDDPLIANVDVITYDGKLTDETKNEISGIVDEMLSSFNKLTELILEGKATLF

[2] = target: Escherichia coli MAT (eMAT) (Escherichia coli, UniProt P0A817); assay: MAT assay, turnover of S/Se-Met analogs to S(Se)AM analogs (RP-HPLC end point); details: 2 mM Met analog, 1 mM ATP, 5 μM MAT, pH 8, 4 h, 37° C.; average of two assays
Protocol: (§1) Standard uniform assay conditions (2 mM Met analog, 1 mM ATP, 5 μM MAT, 25 mM Tris, 5 mM MgCl2, 50 mM KCl, pH 8, 4 h) were adopted to facilitate this broad assessment. For the thermophilic counterpart (mMAT), reactions were conducted at 65° C., while all other reactions were incubated at 37° C. Production of SAM analogs was determined by an RP-HPLC end point assay to afford complete analysis of the desired SAM analog and/or any corresponding degradation products known to directly derive from the desired SAM analog intermediate. Putative SAM analog and SAM-derived degradative product formation was subsequently confirmed via high-resolution mass spectrometry (HRMS) analysis for all positive reactions (see Table 2).
(§2) To monitor MAT reactions, analytical RP HPLC employed a Luna C18 column (5 μm, 4.6 mm×250 mm; Phenomenex, Torrance, Calif., USA) [gradient of 10% B to 40% B over 15 min, 40% B to 75% B over 5 min (A=10 mM NaH2PO4, 5 mM octane sulfonic acid, pH was adjusted to 3.5 using phosphoric acid; B=acetonitrile) flow rate=1 mL min^−1; A254].
(§3) In vitro MAT reactions were conducted in a volume of 50 μl with 2 mM S/Se-alkylated analog (compounds 2-30), 1 mM ATP and 5 μM purified MAT in 25 mM Tris buffer pH 8.0, 5 mM MgCl2, 50 mM KCl for 4 h. The sMAT and mMAT reactions were conducted at 65° C. while hMATs and eMAT were incubated at 37° C. Reactions were quenched by adding an equal volume of methanol followed by centrifugation (10,000×g for 15 min) to remove the precipitated protein and product formation for each reaction was subsequently analyzed by RP-HPLC using Method D (FIG. 15, first column). For each reaction, percent yield was based upon the integration of species at 254 nm and calculated by dividing the integrated area of product and/or decomposed product by the sum of integrated area of product and/or decomposed product and the remaining substrate. The assays were repeated twice under identical conditions, and Table 2 (and FIG. 5) represents an average value of two assays. The inclusion of adenine and 5′-R-thio-5′-adenosine in these calculations is based upon the established SAM and ATP chemical decomposition pathways which indicate adenine and 5′-R-thio-5′-adenosine to only derive from SAM (not ATP). All putative products were subsequently confirmed by high resolution electrospray ionization (ESI) mass spectra with positive (+) and/or negative (−) mode.

[3] = target: T1, Sulfolobus solfataricus MAT (sMAT); details: 2 mM analog, 1 mM ATP, 5 μM sMAT, pH 8.0, 4 h at 65° C.; average of two assays
Protocol: In-vitro sMAT assay: In vitro sMAT reactions were conducted in a volume of 50 μl with 2 mM S/Se-alkylated analog, 1 mM ATP and 5 μM purified sMAT in 25 mM Tris buffer pH 8.0, 5 mM MgCl2, 50 mM KCl for 4 h at 65° C. Reactions were quenched by adding an equal volume of methanol followed by centrifugation (10,000×g for 15 min) to remove the precipitated protein and product formation for each reaction was subsequently analyzed by reverse phase HPLC (RP-HPLC) using method described below. For each reaction, percent yield was based upon the integration of species at 254 nm and calculated by dividing the integrated area of product and/or decomposed product by the sum of integrated area of product and/or decomposed product and the remaining substrate. The assays were repeated twice under identical conditions, and Table 4 (and FIG. 17) represents an average value of two assays. The inclusion of adenine and 5′-R-thio-5′-adenosine in these calculations is based upon the established SAM and ATP chemical decomposition pathways which indicate adenine and 5′-R-thio-5′-adenosine to only derive from SAM (not ATP). All putative products were subsequently confirmed by high resolution electrospray ionization (ESI) mass spectra with positive (+) and/or negative (−) mode.
RP-HPLC method: Reactions were quenched by the addition of equal volume of methanol followed by centrifugation at 10,000 g for 15 min to remove precipitated protein before applying on an analytical Varian ProStar HPLC [Luna C18 column, 5 μm, 4.6 mm×250 mm; Phenomenex, Torrance, Calif., USA; gradient of 10% B to 40% B over 15 min, 40% B to 75% B over 5 min (A=10 mM NaH2PO4, 5 mM octane sulfonic acid, pH was adjusted to 3.5 using phosphoric acid; B=acetonitrile) flow rate=1 mL min^−1; A254].

[4] = target: T2, Methanocaldococcus jannaschii MAT (mMAT) (Methanocaldococcus jannaschii, UniProt Q58605); details: 2 mM Met analog, 1 mM ATP, 5 μM MAT, pH 8, 4 h, 65° C.; average of two assays
T2 sequence (Q58605 1-406): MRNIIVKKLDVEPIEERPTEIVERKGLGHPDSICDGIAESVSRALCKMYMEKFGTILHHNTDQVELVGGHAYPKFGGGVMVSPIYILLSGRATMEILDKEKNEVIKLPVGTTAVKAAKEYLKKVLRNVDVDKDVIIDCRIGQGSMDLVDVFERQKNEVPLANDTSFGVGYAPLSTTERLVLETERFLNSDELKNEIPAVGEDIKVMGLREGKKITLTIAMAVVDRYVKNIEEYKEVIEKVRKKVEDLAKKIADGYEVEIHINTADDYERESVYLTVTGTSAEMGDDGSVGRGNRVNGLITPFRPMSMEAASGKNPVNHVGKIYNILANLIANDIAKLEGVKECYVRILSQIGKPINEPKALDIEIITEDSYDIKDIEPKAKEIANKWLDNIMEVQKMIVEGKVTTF
Protocol: as §1, with “intermediate.” for “intermediate. Putative SAM analog and SAM-derived degradative product formation was subsequently confirmed via high-resolution mass spectrometry (HRMS) analysis for all positive reactions (see Table 2).”
as §2
as §3, with “The” for “In vitro MAT reactions were conducted in a volume of 50 μl with 2 mM S/Se-alkylated analog (compounds 2-30), 1 mM ATP and 5 μM purified MAT in 25 mM Tris buffer pH 8.0, 5 mM MgCl2, 50 mM KCl for 4 h. The”

[5] = target: human MAT I catalytic subunit alpha (hMAT1A) (Homo sapiens, UniProt Q00266); assay: MAT assay, turnover of S/Se-Met analogs to S(Se)AM analogs (RP-HPLC end point); details: 2 mM Met analog, 1 mM ATP, 5 μM MAT, pH 8, 4 h, 37° C.; average of two assays
Protocol: as §1, with “intermediate.” for “intermediate. Putative SAM analog and SAM-derived degradative product formation was subsequently confirmed via high-resolution mass spectrometry (HRMS) analysis for all positive reactions (see Table 2).”
as §2
as §3, with “The” for “In vitro MAT reactions were conducted in a volume of 50 μl with 2 mM S/Se-alkylated analog (compounds 2-30), 1 mM ATP and 5 μM purified MAT in 25 mM Tris buffer pH 8.0, 5 mM MgCl2, 50 mM KCl for 4 h. The”

[6] = target: human MAT II catalytic alpha subunit alone (hMAT2A) (Homo sapiens, UniProt P31153); assay: as above; details: 2 mM Met analog, 1 mM ATP, 5 μM MAT, pH 8, 4 h, 37° C.; average of two assays
Protocol: as §1, with “intermediate.” for “intermediate. Putative SAM analog and SAM-derived degradative product formation was subsequently confirmed via high-resolution mass spectrometry (HRMS) analysis for all positive reactions (see Table 2).”
as §2
as §3, with “The” for “In vitro MAT reactions were conducted in a volume of 50 μl with 2 mM S/Se-alkylated analog (compounds 2-30), 1 mM ATP and 5 μM purified MAT in 25 mM Tris buffer pH 8.0, 5 mM MgCl2, 50 mM KCl for 4 h. The”

[7] = target: human MAT II catalytic alpha and regulatory beta subunit (hMAT2) (Homo sapiens, UniProt P31153); assay: as above; details: 2 mM Met analog, 1 mM ATP, 5 μM MAT, pH 8, 4 h, 37° C.; average of two assays
Protocol: as §1, with “intermediate.” for “intermediate. Putative SAM analog and SAM-derived degradative product formation was subsequently confirmed via high-resolution mass spectrometry (HRMS) analysis for all positive reactions (see Table 2).”
as §2
as §3, with “The” for “In vitro MAT reactions were conducted in a volume of 50 μl with 2 mM S/Se-alkylated analog (compounds 2-30), 1 mM ATP and 5 μM purified MAT in 25 mM Tris buffer pH 8.0, 5 mM MgCl2, 50 mM KCl for 4 h. The”

Nc1ncnc2c1ncn2[C@@H]1O[C@H](COP(=O)(O)OP(=O)(O)O)[C@@H](O)[C@H]1O [ADP]
product formation from ADP and methionine [1]: no detectable product

[N-]=[N+]=NCCCSCC[C@H](N)C(=O)O [compound 21, (2S)-2-amino-4-[(3-azidopropyl)sulfanyl]butanoic acid]
Percentage Turn-over eMAT [2]: 0% | Percentage Turn-Over (sMAT) [3]: 60% | Percentage Turn-over mMAT [4]: 31% | Percentage Turn-over hMAT1A [5]: 0% | Percentage Turn-over hMAT2A [6]: 19% | Percentage Turn-over hMAT2 [7]: 46%

[N-]=[N+]=NC/C=C/CSCC[C@H](N)C(=O)O [compound 23, (2S)-2-amino-4-{[(2E)-4-azidobut-2-en-1-yl]sulfanyl}butanoic acid]
Percentage Turn-over eMAT [2]: 0% | Percentage Turn-Over (sMAT) [3]: 28% | Percentage Turn-over mMAT [4]: 32% | Percentage Turn-over hMAT1A [5]: 2% | Percentage Turn-over hMAT2A [6]: 5% | Percentage Turn-over hMAT2 [7]: 12%
